Results: the NIST ThermoML archive (doi:10.1016/j.jct.2018.03.017)
Numbers after ± are expanded uncertainties.

Legend:
[1] = 96 kPa, Liquid, Pycnometric method
[2] = xn = mol fraction of the nth substance listed; conditions: 96 kPa, Liquid, Pycnometric method, x2 = 0

mass density ([1]; 288.15 K) [kg/m3] | mass density ([1]; 293.15 K) [kg/m3] | mass density ([1]; 298.15 K) [kg/m3] | mass density ([1]; 303.15 K) [kg/m3] | mass density ([1]; 308.15 K) [kg/m3] | mass density ([1]; 313.15 K) [kg/m3] | mass density ([1]; 318.15 K) [kg/m3] | mass density ([1]; 323.15 K) [kg/m3] | mass density ([1]; 328.15 K) [kg/m3] | mass density ([2]; 288.15 K) [kg/m3] | mass density ([2]; 293.15 K) [kg/m3] | mass density ([2]; 298.15 K) [kg/m3] | mass density ([2]; 303.15 K) [kg/m3] | mass density ([2]; 308.15 K) [kg/m3] | mass density ([2]; 313.15 K) [kg/m3] | mass density ([2]; 318.15 K) [kg/m3] | mass density ([2]; 323.15 K) [kg/m3] | mass density ([2]; 328.15 K) [kg/m3] | Structure (SMILES)
1020.6 ± 8.2 | 1017.1 ± 8.2 | 1014.1 ± 8.2 | 1010.9 ± 8.2 | 1007.4 ± 8.2 | 1004.6 ± 8.2 | 1000.8 ± 8.2 | 998.4 ± 8.2 | 994.2 ± 8.2 |  |  |  |  |  |  |  |  |  | C1CCC2=NCCCN2CC1 [1,8-diaza-7-bicyclo[5.4.0]undecene]
1262.7 ± 8.2 | 1260.5 ± 8.2 | 1257.2 ± 8.2 | 1254.8 ± 8.2 | 1251.5 ± 8.2 | 1248.9 ± 8.2 | 1246 ± 8.2 | 1242.4 ± 8.2 | 1240.5 ± 8.2 |  |  |  |  |  |  |  |  |  | OCC(O)CO [glycerol]
 |  |  |  |  |  |  |  |  | 1262.7 ± 8.2 | 1260.5 ± 8.2 | 1257.2 ± 8.2 | 1254.8 ± 8.2 | 1251.5 ± 8.2 | 1248.9 ± 8.2 | 1246 ± 8.2 | 1242.4 ± 8.2 | 1240.5 ± 8.2 | OCC(O)CO [glycerol] + C1CCC2=NCCCN2CC1
